One experiment concerns the target GST-MCL-1 (Homo sapiens, UniProt Q07820). Put plainly: TR-FRET MCL-1 binding assay (competition with probe F-Bak). The gist of the method:
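Test compounds, 11 three-fold dilutions from 25 μM final, incubated 2 hours at room temperature with GST-MCL-1, F-Bak probe and Tb-anti-GST antibody. TR-FRET read at 340/35 nm excitation with 520/525 and 495/510 nm emission. Run without human serum and with 10% HS.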
For orientation: In TR-FRET formats the signal depends on donor and acceptor labels being close together.

For experiment [1], the system named is AMO-1 human multiple myeloma tumor cell line. Put plainly: AMO-1 cell viability assay (CellTiter-Glo, 24 hours). In kind it is cell-based. The note with it: Homo sapiens.
The test system of experiment [2] is NCI-H929 human multiple myeloma tumor cell line. Briefly: NCI-H929 cell viability assay (CellTiter-Glo, 24 hours). In kind it is cell-based. Particulars: Homo sapiens.
[3] abbreviates: MCL-1 Binding Ki (nM, 10% HS), in the presence of 10% HS (human serum).
The mark [4] stands for this setting: without HS, read-out: MCL-1 Binding Ki.
[5] abbreviates: AMO1, 24 h, read-out: AMO-1 Viability IC50 (μM, 10% FBS), 10% FBS, 24 hours of compound treatment.
Setting [6] is: NCI-H929, 24 h, read-out: H929 Viability IC50 (μM, 10% FBS), 10% FBS, 24 hours of compound treatment.

Read-outs that look alike come from different tables or passages of the source.

As usually defined, the Ki is the dissociation constant of the complex between target and ligand, obtained from inhibition or displacement. One may read the IC50 as the concentration at which inhibition is half-maximal.

Sequence of GST-MCL-1 (Q07820 whole entry): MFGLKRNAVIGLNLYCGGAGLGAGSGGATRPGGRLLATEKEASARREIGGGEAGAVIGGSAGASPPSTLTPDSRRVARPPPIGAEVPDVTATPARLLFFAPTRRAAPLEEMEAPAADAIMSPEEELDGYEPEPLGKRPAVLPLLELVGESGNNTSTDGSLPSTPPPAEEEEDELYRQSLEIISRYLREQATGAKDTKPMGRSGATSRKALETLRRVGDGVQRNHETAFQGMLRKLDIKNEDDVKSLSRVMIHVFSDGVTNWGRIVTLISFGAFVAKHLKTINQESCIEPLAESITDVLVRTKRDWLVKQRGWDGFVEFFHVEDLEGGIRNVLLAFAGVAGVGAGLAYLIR

Regarding `Cc1c(Cl)c2c(Cl)c(C)c1-c1c(-c3ccc(F)cc3)sc3ncnc(c13)O[C@@H](C(=O)O)Cc1cc(ccc1OCc1ccnc(-c3ccc(OC(=O)N4CCOCC4)cc3)n1)OC[C@@H](CN1CCN(C)CC1)O2` [Example 151, (7R,16R)-19,23-dichloro-1-(4-fluorophenyl)-20,22-dimethyl-16-[(4-methylpiperazin-1-yl)methyl]-10-[(2-{4-[(morpholine-4-carbonyl)oxy]phenyl}pyrimidin-4-yl)methoxy]-7,8,15,16-tetrahydro-18,21-etheno-9,13-(metheno)-6,14,17-trioxa-2-thia-3,5-diazacyclononadeca[1,2,3-cd]indene-7-carboxylic Acid], the Ki turned out to be 0.325 nM at GST-MCL-1 (setting [3]) and 0.01 nM on GST-MCL-1 (setting [4]). Further, the IC50 in experiment [1] (AMO1, read-out: AMO-1 Viability IC50 (μM), 10% FBS, 24 hours of compound treatment) was determined as 0.000303 µM; in experiment [2] (NCI-H929, read-out: H929 Viability IC50 (μM), 10% FBS, 24 hours of compound treatment) it was 0.000735 µM.

In the case of `COCCOCCOCCOCc1ccc(-c2nccc(COc3ccc4cc3C[C@H](C(=O)O)Oc3ncnc5sc(-c6ccc(F)cc6)c(c35)-c3c(C)c(Cl)c(c(Cl)c3C)O[C@H](CN3CCN(C)CC3)CO4)n2)cc1COCCOCCOCCOC` [Example 152, (7R,16R)-10-({2-[3,4-bis(2,5,8,11-tetraoxadodecan-1-yl)phenyl]pyrimidin-4-yl}methoxy)-19,23-dichloro-1-(4-fluorophenyl)-20,22-dimethyl-16-[(4-methylpiperazin-1-yl)methyl]-7,8,15,16-tetrahydro-18,21-etheno-13,9-(metheno)-6,14,17-trioxa-2-thia-3,5-diazacyclononadeca[1,2,3-cd]indene-7-carboxylic Acid], the Ki is 0.041 nM on GST-MCL-1 (setting [3]) and 0.011 nM on GST-MCL-1 (setting [4]). The IC50 was determined as 0.00732 µM in experiment [1] (setting [5]) and 0.00593 µM in experiment [2] (setting [6]).

Consider `COCCOCCOCCOCc1ccc(-c2nccc(COc3ccc4cc3C[C@H](C(=O)O)Oc3ncnc5sc(-c6ccc(F)cc6)c(c35)-c3c(C)c(Cl)c(c(Cl)c3C)O[C@H](CN3CCN(C)CC3)CO4)n2)c(OCCOCCOCCOC)c1` [Example 153, (7R,16R)-19,23-dichloro-1-(4-fluorophenyl)-10-({2-[2-{2-[2-(2-methoxyethoxy)ethoxy]ethoxy}-4-(2,5,8,11-tetraoxadodecan-1-yl)phenyl]pyrimidin-4-yl}methoxy)-20,22-dimethyl-16-[(4-methylpiperazin-1-yl)methyl]-7,8,15,16-tetrahydro-18,21-etheno-13,9-(metheno)-6,14,17-trioxa-2-thia-3,5-diazacyclononadeca[1,2,3-cd]indene-7-carboxylic Acid], for which the Ki was found to be 0.023 nM on GST-MCL-1 (setting [3]) and 0.001 nM at GST-MCL-1 (setting [4]). The IC50 in experiment [1] (setting [5]) stood at 0.00728 µM; in experiment [2] (setting [6]) it was 0.00688 µM.

`CO[C@@H]1CO[C@H]2[C@@H]1OC[C@H]2OCCOc1ccc(-c2nccc(COc3ccc4cc3C[C@H](C(=O)O)Oc3ncnc5sc(-c6ccc(F)cc6)c(c35)-c3c(C)c(Cl)c(c(Cl)c3C)O[C@H](CN3CCN(C)CC3)CO4)n2)cc1` [Example 154, (7R,16R)-19,23-dichloro-1-(4-fluorophenyl)-10-({2-[4-(2-{[(3R,3aR,6R,6aR)-6-methoxyhexahydrofuro[3,2-b]furan-3-yl]oxy}ethoxy)phenyl]pyrimidin-4-yl}methoxy)-20,22-dimethyl-16-[(4-methylpiperazin-1-yl)methyl]-7,8,15,16-tetrahydro-18,21-etheno-13,9-(metheno)-6,14,17-trioxa-2-thia-3,5-diazacyclononadeca[1,2,3-cd]indene-7-carboxylic Acid]: the Ki at GST-MCL-1 (setting [3]) turned out to be 0.191 nM; at GST-MCL-1 (setting [4]) it was 0.018 nM. Besides, the results for the IC50 in experiment [1] (setting [5]) and in experiment [2] (setting [6]) were 0.000698 µM and 0.000643 µM, respectively.

Turning to `COCCOCCOCCOCc1cc(OC[C@H]2COCCO2)ccc1-c1nccc(COc2ccc3cc2C[C@H](C(=O)O)Oc2ncnc4sc(-c5ccc(F)cc5)c(c24)-c2c(C)c(Cl)c(c(Cl)c2C)O[C@H](CN2CCN(C)CC2)CO3)n1` [Example 155, (7R,16R)-19,23-dichloro-10-({2-[4-{[(2R)-1,4-dioxan-2-yl]methoxy}-2-(2,5,8,11-tetraoxadodecan-1-yl)phenyl]pyrimidin-4-yl}methoxy)-1-(4-fluorophenyl)-20,22-dimethyl-16-[(4-methylpiperazin-1-yl)methyl]-7,8,15,16-tetrahydro-18,21-etheno-13,9-(metheno)-6,14,17-trioxa-2-thia-3,5-diazacyclononadeca[1,2,3-cd]indene-7-carboxylic Acid], the inhibition constant Ki at GST-MCL-1 (setting [3]) is 0.03 nM; at GST-MCL-1 (setting [4]) it was 0.001 nM. Also, the concentration for half-maximal inhibition (IC50) came out at 0.000188 µM in experiment [1] (setting [5]) and 0.000187 µM in experiment [2] (setting [6]).

Turning to `COCCOCCOCCOc1cccc(COc2ccc3cc2C[C@H](C(=O)O)Oc2ncnc4sc(-c5ccc(F)cc5)c(c24)-c2c(C)c(Cl)c(c(Cl)c2C)O[C@H](CN2CCN(C)CC2)CO3)c1` [Example 156, (7R,16R)-19,23-dichloro-1-(4-fluorophenyl)-10-[(3-{2-[2-(2-methoxyethoxy)ethoxy]ethoxy}phenyl)methoxy]-20,22-dimethyl-16-[(4-methylpiperazin-1-yl)methyl]-7,8,15,16-tetrahydro-18,21-etheno-13,9-(metheno)-6,14,17-trioxa-2-thia-3,5-diazacyclononadeca[1,2,3-cd]indene-7-carboxylic Acid], the Ki on GST-MCL-1 (setting [3]) was 23.6 nM; at GST-MCL-1 (setting [4]), 1.88 nM. In addition, the values for the IC50 in experiment [1] (setting [5]) and in experiment [2] (setting [6]) were 0.00453 µM and 0.0111 µM, respectively.

For the molecule `Cc1c(Cl)c2c(Cl)c(C)c1-c1c(-c3ccc(F)cc3)sc3ncnc(c13)O[C@@H](C(=O)O)Cc1cc(ccc1OCc1ccnc(-c3ccc(OC[C@@H]4CN(C)CCO4)cc3)n1)OC[C@@H](CN1CCN(C)CC1)O2` [Example 157, (7R,16R)-19,23-dichloro-1-(4-fluorophenyl)-20,22-dimethyl-10-{[2-(4-{[(2S)-4-methylmorpholin-2-yl]methoxy}phenyl)pyrimidin-4-yl]methoxy}-16-[(4-methylpiperazin-1-yl)methyl]-7,8,15,16-tetrahydro-18,21-etheno-9,13-(metheno)-6,14,17-trioxa-2-thia-3,5-diazacyclononadeca[1,2,3-cd]indene-7-carboxylic Acid], the inhibition constant (Ki) came out at 0.168 nM at GST-MCL-1 (setting [3]) and 0.008 nM at GST-MCL-1 (setting [4]). In addition, the IC50 was 0.000233 µM in experiment [1] (setting [5]) and 0.000821 µM in experiment [2] (setting [6]).

In the case of `Cc1c(Cl)c2c(Cl)c(C)c1-c1c(-c3ccc(F)cc3)sc3ncnc(c13)O[C@@H](C(=O)O)Cc1cc(ccc1OCc1ccnc(-c3ccc(OC[C@H]4CN(C)CCO4)cc3)n1)OC[C@@H](CN1CCN(C)CC1)O2` [Example 158, (7R,16R)-19,23-dichloro-1-(4-fluorophenyl)-20,22-dimethyl-10-{[2-(4-{[(2R)-4-methylmorpholin-2-yl]methoxy}phenyl)pyrimidin-4-yl]methoxy}-16-[(4-methylpiperazin-1-yl)methyl]-7,8,15,16-tetrahydro-18,21-etheno-9,13-(metheno)-6,14,17-trioxa-2-thia-3,5-diazacyclononadeca[1,2,3-cd]indene-7-carboxylic Acid], the inhibition constant (Ki) on GST-MCL-1 (setting [3]) worked out at 0.41 nM; on GST-MCL-1 (setting [4]), 0.003 nM. For the same molecule, the IC50 in experiment [1] (setting [5]) was 0.000258 µM; in experiment [2] (setting [6]) it was 0.00131 µM.

For `CO[C@@H]1CO[C@H]2[C@@H]1OC[C@H]2OCCOCCOc1ccc(-c2nccc(COc3ccc4cc3C[C@H](C(=O)O)Oc3ncnc5sc(-c6ccc(F)cc6)c(c35)-c3c(C)c(Cl)c(c(Cl)c3C)O[C@H](CN3CCN(C)CC3)CO4)n2)cc1` [Example 159, (7R,16R)-19,23-dichloro-1-(4-fluorophenyl)-10-[(2-{4-[2-(2-{[(3R,3aR,6R,6aR)-6-methoxyhexahydrofuro[3,2-b]furan-3-yl]oxy}ethoxy)ethoxy]phenyl}pyrimidin-4-yl)methoxy]-20,22-dimethyl-16-[(4-methylpiperazin-1-yl)methyl]-7,8,15,16-tetrahydro-18,21-etheno-13,9-(metheno)-6,14,17-trioxa-2-thia-3,5-diazacyclononadeca[1,2,3-cd]indene-7-carboxylic Acid], the figures for the inhibition constant (Ki) at GST-MCL-1 (setting [3]) and on GST-MCL-1 (setting [4]) were 0.087 nM and 0.008 nM, respectively. For the same molecule, the IC50 in experiment [1] (setting [5]) was found to be 0.000296 µM; in experiment [2] (setting [6]) it was 0.000379 µM.

`COCCOCCOC[C@H]1CC[C@H](c2nccc(COc3ccc4cc3C[C@H](C(=O)O)Oc3ncnc5sc(-c6ccc(F)cc6)c(c35)-c3c(C)c(Cl)c(c(Cl)c3C)O[C@H](CN3CCN(C)CC3)CO4)n2)CC1` [Example 160, (7R,16R)-19,23-dichloro-1-(4-fluorophenyl)-10-({2-[(1r,4r)-4-{[2-(2-methoxyethoxy)ethoxy]methyl}cyclohexyl]pyrimidin-4-yl}methoxy)-20,22-dimethyl-16-[(4-methylpiperazin-1-yl)methyl]-7,8,15,16-tetrahydro-18,21-etheno-13,9-(metheno)-6,14,17-trioxa-2-thia-3,5-diazacyclononadeca[1,2,3-cd]indene-7-carboxylic Acid]: the Ki turned out to be 0.083 nM at GST-MCL-1 (setting [3]) and 0.005 nM on GST-MCL-1 (setting [4]). For the same molecule, the half-maximal inhibitory concentration (IC50) in experiment [1] (setting [5]) turned out to be 0.000116 µM; in experiment [2] (setting [6]) it was 0.000206 µM.
